In experiment [1] the target is Mcl-1 (Homo sapiens (Human), UniProt Q07820). Nature of the experiment: Fluorescence polarization anisotropy (FPA) competition assay, FITC-Bak or FITC-Bim BH3 peptide. The experiment is classed as binding. The settings on record: read-out: Ki for Inhibition of Mcl-1 by FPA assay. (In general: Fluorescence polarisation rises when a labelled molecule tumbles more slowly, as on binding a larger partner.)

In experiment [2] the test system is H929 human cancer cell lines. Kind of experiment: Cellular viability / proliferation (Cell TiterGlo, 72 h). The format is cell-based. The settings on record: Homo sapiens, NCI-H929, 72 h, read-out: GI50 on cellular proliferation of H929 human cancer cell lines, H929 cells, 72 h, Cell TiterGlo, 10% FBS. Here is the method:
Cellular Viability of Human Tumor Cell Lines
To evaluate compound effect on cellular proliferation, cells were plated at 1,000 cells/well in 96-well tissue culture plates in a total volume of 90 μL medium supplemented with 10% FBS (Sigma, Saint Louis, Mo.). 24 hours later, 10 μL of compound (in a 2-fold serial dilution) is added to the cells for a top concentration of 50 μM and a final DMSO concentration <1%. After 72 hours, 50 μL of Cell TiterGlo (Promega, Madison, Wis., USA) reagent is added to each well and plates are incubated at room temperature, in the dark, for 30 minutes. Luminescence is measured on a BioTek Cytation 3. Luminescence values are imported into a template in XLFit (Guildford, Surrey, UK) that uses a four-parameter fit to generate an IC50 value for each compound dilution series on the plate.
A general note: In ATP-based viability assays light output follows the ATP content of the culture.

The results in this text go back to patent US11596639B2, “Substituted indole Mcl-1 inhibitors” (Vanderbilt University, priority 2016, dated 2023).

Chain of Mcl-1 (Q07820 172-327): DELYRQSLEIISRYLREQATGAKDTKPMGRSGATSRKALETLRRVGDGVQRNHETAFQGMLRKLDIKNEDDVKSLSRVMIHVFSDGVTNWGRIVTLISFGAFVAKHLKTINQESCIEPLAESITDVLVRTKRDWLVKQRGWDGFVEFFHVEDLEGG

What is called Ki is the dissociation constant of the complex between target and ligand, obtained from inhibition or displacement. Turning to `Cc1cc(OCCCc2c3n(c4c(-c5c(C)ncnc5C)c(Cl)ccc24)[C@H](C)CN(c2cccc4c(C(=O)O)cccc24)C3=O)cc(C)c1Cl` [Example 148, 5-[(4R)-7-chloro-10-[3-(4-chloro-3,5-dimethyl-phenoxy)propyl]-6-(4,6-dimethylpyrimidin-5-yl)-4-methyl-1-oxo-3,4-dihydropyrazino[1,2-a]indol-2-yl]naphthalene-1-carboxylic acid], the Ki in experiment [1] is < 1 nM. Moreover, the GI50 in experiment [2] was found to be 650 nM.

`Cc1cc(OCCCc2c3n(c4c(-c5c(C)nn(CC6CCN(C)CC6)c5C)c(Cl)ccc24)[C@H](C)CN(c2cccc4c(C(=O)O)cn(C)c24)C3=O)cc(C)c1Cl` [Example 137, (R)-7-(7-chloro-10-(3-(4-chloro-3,5-dimethylphenoxy)propyl)-6-(3,5-dimethyl-1-((1-methylpiperidin-4-yl)methyl)-1H-pyrazol-4-yl)-4-methyl-1-oxo-3,4-dihydropyrazino[1,2-a]indol-2(1H)-yl)-1-methyl-1H-indole-3-carboxylic acid]: the Ki in experiment [1] is 1.2 nM. Also, in experiment [2], the GI50 is 460 nM. For `Cc1cc(OCCCc2c3n(c4c(-c5c(C)ncnc5C)c(Cl)ccc24)CCCN(c2cccc4c(C(=O)O)cn(C)c24)C3=O)cc(C)c1Cl` [Example 119, 7-[8-chloro-11-[3-(4-chloro-3,5-dimethyl-phenoxy)propyl]-7-(4,6-dimethylpyrimidin-5-yl)-1-oxo-4,5-dihydro-3H-[1,4]diazepino[1,2-a]indol-2-yl]-1-methyl-indole-3-carboxylic acid] the same measures were < 1 nM and 2900 nM. For `Cc1ccnc(Cn2c(C(=O)O)cc3cc(C)cc(N4C[C@@H](C)n5c(c(CCCOc6cc(C)c(Cl)c(C)c6)c6ccc(Cl)c(-c7c(C)nn(C)c7C)c65)C4=O)c32)c1` [Example 456, (R)-7-(7-Chloro-10-(3-(4-chloro-3,5-dimethylphenoxy)propyl)-4-methyl-1-oxo-6-(1,3,5-trimethyl-1H-pyrazol-4-yl)-3,4-dihydropyrazino[1,2-a]indol-2(1H)-yl)-5-methyl-1-((4-methylpyridin-2-yl)methyl)-1H-indole-2-carboxylic acid] the same measures were < 1 nM and < 200 nM. In the case of `CC[C@@H]1Cn2c(c(CCCOc3cc(C)c(Cl)c(C)c3)c3ccc(Cl)c(-c4c(C)nn(C)c4C)c32)C(=O)N1c1ccc(C(=O)O)cc1` [Example 23, (R)-4-(7-chloro-10-(3-(4-chloro-3,5-dimethylphenoxy)propyl)-3-ethyl-1-oxo-6-(1,3,5-trimethyl-1H-pyrazol-4-yl)-3,4-dihydropyrazino[1,2-a]indol-2(1H)-yl)benzoic acid], the Ki in experiment [1] was < 1 nM. For the same compound, the GI50 in experiment [2] was determined as 4900 nM. With `Cc1cc(OCCCc2c3n(c4c(-c5c(C)nn(C)c5C)c(Cl)ccc24)[C@H](C)CN(c2ccc(C(=O)O)c4ccn(C)c24)C3=O)cc(C)c1Cl` [Example 52, (R)-7-(7-chloro-10-(3-(4-chloro-3,5-dimethylphenoxy)propyl)-4-methyl-1-oxo-6-(1,3,5-trimethyl-1H-pyrazol-4-yl)-3,4-dihydropyrazino[1,2-a]indol-2(1H)-yl)-1-methyl-1H-indole-4-carboxylic acid], the Ki in experiment [1] is < 1 nM. The GI50 in experiment [2] is 470 nM. The corresponding values for `Cc1cc(OCCCc2c3n(c4c(-c5c(C)nn(C)c5C)c(Cl)ccc24)[C@H](C)CN(c2cn(C)c4ccc(-c5nnn[nH]5)cc24)C3=O)cc(C)c1Cl` [Example 251, (R)-7-Chloro-10-(3-(4-chloro-3,5-dimethylphenoxy)propyl)-4-methyl-2-(1-methyl-5-(1H-tetrazol-5-yl)-1H-indol-3-yl)-6-(1,3,5-trimethyl-1H-pyrazol-4-yl)-3,4-dihydropyrazino[1,2-a]indol-1(2H)-one] are < 1 nM and 250 nM. The corresponding values for `Cc1cc(OCCCc2c3n(c4c(-c5c(C)nn(C)c5C)c(Cl)ccc24)[C@H](C)CN(c2cn(C)c4ccc(-c5cnn(C)c5)cc24)C3=O)cc(C)c1Cl` [Example 391, (R)-7-Chloro-10-(3-(4-chloro-3,5-dimethylphenoxy)propyl)-4-methyl-2-(1-methyl-5-(1-methyl-1H-pyrazol-4-yl)-1H-indol-3-yl)-6-(1,3,5-trimethyl-1H-pyrazol-4-yl)-3,4-dihydropyrazino[1,2-a]indol-1(2H)-one] are 2.1 nM and 370 nM. In the case of `Cc1cc(OCCCc2c3n(c4c(-c5c(C)nn(C)c5C)c(Cl)ccc24)CCCN(c2cc(C(=O)O)c4cnn(CCO)c4c2)C3=O)cc(C)c1Cl` [Example 107, 6-[8-Chloro-11-[3-(4-chloro-3,5-dimethyl-phenoxy)propyl]-1-oxo-7-(1,3,5-trimethylpyrazol-4-yl)-4,5-dihydro-3H-[1,4]diazepino[1,2-a]indol-2-yl]-1-(2-hydroxyethyl)indazole-4-carboxylic acid], in experiment [1], the Ki was < 1 nM. Same read-out and setting: next, `Cc1cc(OCCCc2c3n(c4c(-c5c(C)nn(C)c5C)c(Cl)ccc24)CCCN(c2cc(C(=O)O)c4c(cnn4C)c2)C3=O)cc(C)c1Cl` [Example 85, 5-[8-Chloro-11-[3-(4-chloro-3,5-dimethyl-phenoxy)propyl]-1-oxo-7-(1,3,5-trimethylpyrazol-4-yl)-4,5-dihydro-3H-[1,4]diazepino[1,2-a]indol-2-yl]-1-methyl-indazole-7-carboxylic acid]: 1.5 nM; `Cc1cc(OCCCc2c3n(c4c(-c5c(C)cccc5C)c(Cl)ccc24)CCCNC3=O)cc(C)c1Cl` [Example 86, 8-Chloro-11-(3-(4-chloro-3,5-dimethylphenoxy)propyl)-7-(2,6-dimethylphenyl)-2,3,4,5-tetrahydro-1H-[1,4]diazepino[1,2-a]indol-1-one]: 47 nM. Still for that read-out and setting: next, `Cc1cc(OCCCc2c(C(=O)N(C)c3ccc(C(=O)O)cc3)n(CCN3CCOCC3)c3c(-c4c(C)nn(C)c4C)c(Cl)ccc23)cc(C)c1Cl` [Example 731, 4-[[6-Chloro-3-[3-(4-chloro-3,5-dimethyl-phenoxy)propyl]-1-(2-morpholinoethyl)-7-(1,3,5-trimethylpyrazol-4-yl)indole-2-carbonyl]-methyl-amino]benzoic acid]: > 200 nM; `Cc1cc(OCCCc2c3n(c4c(-c5c(C)nn(C)c5C)c(Cl)ccc24)CCCN(c2cc(C(=O)O)c4cn(CCN(C)C)nc4c2)C3=O)cc(C)c1Cl` [Example 42, 6-[8-chloro-11-[3-(4-chloro-3,5-dimethyl-phenoxy)propyl]-1-oxo-7-(1,3,5-trimethylpyrazol-4-yl)-4,5-dihydro-3H-[1,4]diazepino[1,2-a]indol-2-yl]-2-[2-(dimethylamino)ethyl]indazole-4-carboxylic acid]: 8 nM; `Cc1cc(OCCCc2c3n(c4c(-c5c(C)nn(C)c5C)c(Cl)ccc24)[C@H](C)[C@@H](C)N(c2cc(C(=O)O)c4ccn(C)c4c2)C3=O)cc(C)c1Cl` [Example 143, 6-((3R,4R)-7-chloro-10-(3-(4-chloro-3,5-dimethylphenoxy)propyl)-3,4-dimethyl-1-oxo-6-(1,3,5-trimethyl-1H-pyrazol-4-yl)-3,4-dihydropyrazino[1,2-a]indol-2(1H)-yl)-1-methyl-1H-indole-4-carboxylic acid]: 7.6 nM.

For `Cc1cc(OCCCc2c3n(c4c(-c5c(C)nn(C)c5C)c(Cl)ccc24)[C@H](C)CN(c2ccc(OCC4CCN(C)C4)c4c2cc(C(=O)O)n4C)C3=O)cc(C)c1Cl` (some centres unmarked) [Example 319, 4-((M, R)-7-Chloro-10-(3-(4-chloro-3,5-dimethylphenoxy)propyl)-4-methyl-1-oxo-6-(1,3,5-trimethyl-1H-pyrazol-4-yl)-3,4-dihydropyrazino[1,2-a]indol-2(1H)-yl)-1-methyl-7-((1-methylpyrrolidin-3-yl)methoxy)-1H-indole-2-carboxylic acid], the Ki in experiment [1] amounted to 3.2 nM.

Take `Cc1cc(OCCCc2c3n(c4c(-c5c(C)nn(C)c5C)c(Cl)ccc24)[C@H](C)CN(c2cccc4c2cc(C(N)=O)n4C)C3=O)cc(C)c1Cl` [Example 266, 4-[(4R)-7-chloro-10-[3-(4-chloro-3,5-dimethyl-phenoxy)propyl]-4-methyl-1-oxo-6-(1,3,5-trimethylpyrazol-4-yl)-3,4-dihydropyrazino[1,2-a]indol-2-yl]-1-methyl-indole-2-carboxamide]: in experiment [1], the Ki came to 9.2 nM. On the same count and under the same terms, to `Cc1cc(OCCCc2c3n(c4c(-c5c(C)nn(C)c5C)c(Cl)ccc24)[C@H](C)CN(c2ccc(C(=O)O)c(Cl)c2)C3=O)cc(C)c1Cl` [Example 35, (R)-2-chloro-4-(7-chloro-10-(3-(4-chloro-3,5-dimethylphenoxy)propyl)-4-methyl-1-oxo-6-(1,3,5-trimethyl-1H-pyrazol-4-yl)-3,4-dihydropyrazino[1,2-a]indol-2(1H)-yl)benzoic acid] belongs 1.5 nM; to `Cc1cc(OCCCc2c(C(=O)N3CCN(c4cncc(C(=O)O)c4)CC3)n(Cc3cccnc3)c3c(-c4c(C)nn(C)c4C)c(Cl)ccc23)cc(C)c1Cl` [Example 734, 5-(4-(6-chloro-3-(3-(4-chloro-3,5-dimethylphenoxy)propyl)-1-(pyridin-3-ylmethyl)-7-(1,3,5-trimethyl-1H-pyrazol-4-yl)-1H-indole-2-carbonyl)piperazin-1-yl)nicotinic acid], > 200 nM.
